Patent publication US20040053962A1, “Methods for inhibiting proliferation and inducing apoptosis in cancer cells” (priority 2003, published 2004)

Experiments:
Assay type in all cases: cell-based
[1] = test system: MiaPaCa-2 pancreatic cancer cell line; test: [3H]-thymidine incorporation (DNA synthesis), MiaPaCa-2; set-up: effect on proliferation (thymidine incorporation): dose or concentration left out as unconfirmed
Method: (§1) Cell culture. The following pancreatic cancer cell lines were used: MiaPaCa-2 and PANC-1 (poorly-differentiated); Capan-1 and Capan-2 (well-differentiated); and HPAF and AsPC-1 (pleomorphic). These were purchased from American Type Culture Collection (Rockville, Md.). PANC-1 and MiaPaCa-2 were grown in DMEM media; HPAF and AsPC-1 were grown in MEM media; and Capan-1 and Capan-2 were grown in-McCoy's media. Media were supplemented with 10% FBS, and the cells were grown as monolayers in a humidified atmosphere of […] and 5% CO2 at 37° C. The cells were regularly seeded into 75 cm^2 flask with media changed every other day. For experiments, cells were grown to 80% confluence, digested with trypsin-EDTA, and plated either in 12 or 24-well plates at a concentration of 50,000/ml, as appropriate.
(§2) DNA synthesis by [^3H]-Thymidine incorporation. Cells were plated in 12 or 24-well plates. After reaching 70% confluence, they were incubated in serum-free media for 24 hours, which was then replaced with fresh serum-free media with or without the appropriate concentration of leukotriene B4 receptor antagonist LY293111 (62.5-1000 nM), LTB4 (100-400 nM), or both. After the appropriate period of culture, cellular DNA synthesis was assayed by adding 0.5 μCi/well of [^3H]-methyl-thymidine and incubating for another 2 hours. Then, the cells were washed twice with PBS, fixed with 10% trichloroacetic acid (“TCA”) for 30 minutes, and solubilized by adding 0.4 M NaOH to each well. Radioactivity, indicating incorporation of ^3H-thymidine into DNA, was measured by adding a scintillation cocktail and counting on a scintillation counter (LKB RackBeta, Wallac, Turku, Finland)

[2] = test system: Bcl-2 in MCF-7 breast cancer cells; test: Bcl-2 expression by western blotting; conditions: MCF-7, LTB4 100 nM
[3] = test system: HPAF pancreatic cancer cell line; test: [3H]-thymidine incorporation (DNA synthesis), HPAF; set-up: effect on proliferation (thymidine incorporation): dose or concentration left out as unconfirmed
Method: as §1, §2

Row | SMILES | increase of proliferation compared with control ([1]; MiaPaCa-2 (FIG. 6A), 100 nM LTB4, 24 hours) | thymidine incorporation compared with control ([1]; MiaPaCa-2, LTB4 100 nM for 72 hours) | effect on proliferation (thymidine incorporation) ([1]; MiaPaCa-2, concentration and time-dependent, P<0.0001) | Bcl-2 expression (western blot) [2] | increase of proliferation compared with control ([3]; HPAF (FIG. 6B), 100 nM LTB4, 24 hours) | thymidine incorporation compared with control ([3]; HPAF, LTB4 100 nM for 72 hours) | effect on proliferation (thymidine incorporation) ([3]; HPAF, concentration and time-dependent, P<0.0001) | effect on proliferation (thymidine incorporation) ([1]; MiaPaCa-2, 48 hours, likely a toxic effect, P=0.2316) | effect on proliferation (thymidine incorporation) ([3]; HPAF, 48 hours, likely a toxic effect, P=0.2217)
1 | CCCCC/C=C\C[C@@H](O)/C=C/C=C/C=C\[C@@H](O)CCCC(=O)O [LTB4, Leukotriene B4, reference compound] | 25% | more than doubled | stimulated the proliferation | increase expression | 25% | more than doubled | stimulated the proliferation | – | –
2 | CCCc1c(OCCCCc2nnn[nH]2)ccc(C(C)=O)c1O [LY171883, 1-(2-hydroxy-3-propyl-4-(4-(1H-tetrazol-5-yl)butoxy)phenyl)ethanone, reference compound] | – | – | – | – | – | – | – | only affected proliferation at the highest concentration | only affected proliferation at the highest concentration
